Source: ChEMBL document CHEMBL5550157, “Synthesis and biological evaluation of orally active anti-Trypanosoma agents” (Bioorg Med Chem, 2024)
pIC50: −log10 of the molar value.

Tests used:
[1] = tested on: Trypanosoma brucei; assay: Antitrypanosomal activity against bloodstream Trypanosoma brucei Lister 427 assessed as reduction in parasite viability incubated for 48 hrs by MTS assay; assay type: functional, organism-based; conditions: Lister 427, 48 h
[2] = Cytotoxicity against mouse RAW264.7 cells assessed as reduction in cell viability after 48 hrs by MTT assay; assay type: toxicity, cell-based
[3] = Cytotoxicity against HEK293 cells assessed as reduction in cell viability after 48 hrs by MTT assay; assay type: toxicity, cell-based; conditions: human
[4] = Selectivity index, ratio of IC50 for mouse RAW264.7 cells to IC50 for antitrypanosomal activity against bloodstream Trypanosoma brucei Lister 427; assay type: toxicity; conditions: read-out: Ratio IC50
[5] = Selectivity index, ratio of IC50 for HEK293 cells to IC50 for antitrypanosomal activity against bloodstream Trypanosoma brucei Lister 427; assay type: toxicity; conditions: human, read-out: Ratio IC50
[6] = tested on: Trypanosoma brucei; assay: Antitrypanosomal activity against Trypanosoma brucei infected in CD1 mouse assessed as reduction in parasite number at 50 mg/kg/day, po administered for 3 days and measured on day 5 by hemocytometer analysis (reference value: 40 10^6/ml; assay type: functional; conditions: time 5 day
[7] = Acute toxicity in CD1 mouse assessed as change in body weight at 50 mg/kg, po; assay type: organism-based; conditions: in vivo

SMILES | pIC50 [1] | IC50 at 48 h [2] [µM] | IC50 at 48 h [3] [µM] | selectivity ratio [4] | selectivity ratio [5] | Activity [6] | Activity [7]
COc1cc(NC(=O)c2cc(C(F)(F)F)cc(C(F)(F)F)c2)ccc1S(N)(=O)=O | 4.62 | 46.3 | 74.3 | 1.94 | 3.11 |  | 
COc1cc(NC(=O)c2ccc3ccccc3c2)ccc1S(N)(=O)=O | 6.00 | 18.1 | 18 | 18.1 | 17.9 | 10 10^6/ml | Non-Toxic
COc1cc(NC(=O)c2ccc(SC)cc2)ccc1S(N)(=O)=O | < 4.00 | 19.6 | > 100 | < 0.2 |  |  | 
CCOc1ccc(C(=O)Nc2ccc(S(N)(=O)=O)c(OC)c2)cc1 | 5.57 | > 100 | > 100 | > 37.3 | > 37.3 |  | 
COc1cc(NC(=O)c2ccc3c(c2)OCO3)ccc1S(N)(=O)=O | 4.96 | 48.1 | 8.8 | 4.41 | 0.81 |  | 
COc1cc(NC(=O)c2ccco2)ccc1S(N)(=O)=O | 5.01 | > 100 | > 100 | > 10.2 | > 10.2 |  | 
COc1cc(NC(=O)c2ccc([N+](=O)[O-])cc2)ccc1S(N)(=O)=O | 5.48 | 578 | > 100 | 176 | > 30.4 |  | 
COc1cc(NC(=O)c2ccc(Cl)c(Cl)c2)ccc1S(N)(=O)=O | 4.41 | 23.8 | 22.4 | 0.62 | 0.58 |  | 
COc1cc(NC(=O)c2ccccc2[N+](=O)[O-])ccc1S(N)(=O)=O | < 4.00 | > 100 | > 100 |  |  |  | 
COc1cc(NC(=O)c2ccc(C(F)(F)F)cc2C(F)(F)F)ccc1S(N)(=O)=O | 4.09 | 59.1 | > 100 | 0.73 | > 1.22 |  | 
COc1cc(NC(=O)c2cc(OC)c(OC)c(OC)c2)ccc1S(N)(=O)=O | 4.04 | 34.6 | 32.9 | 0.38 | 0.36 |  | 
COc1cc(NC(=O)c2cccc(I)c2)ccc1S(N)(=O)=O | 4.71 | > 100 | 48.9 | > 5.16 | 2.53 |  | 

Continued, in another order:

pIC50 [1] | SMILES | IC50 at 48 h [2] [µM] | IC50 at 48 h [3] [µM] | selectivity ratio [4] | selectivity ratio [5] | Activity [6] | Activity [7]
4.43 | CCc1ccc(C(=O)Nc2ccc(S(N)(=O)=O)c(OC)c2)cc1 | 23.9 | 5.69 | 0.64 | 0.15 |  | 
< 4.00 | COc1cc(NC(=O)c2cc(Cl)cc(Cl)c2)ccc1S(N)(=O)=O | 81 | 98 | < 0.81 | < 0.98 |  | 
4.15 | COc1cc(NC(=O)c2ccc(C)cc2)ccc1S(N)(=O)=O | 53.2 | 17.2 | 0.76 | 0.24 |  | 
< 4.00 | COc1cc(NC(=O)c2ccccn2)ccc1S(N)(=O)=O | > 100 | > 100 |  |  |  | 
< 4.00 | COc1cc(NC(=O)c2ccc(N(C)C)cc2)ccc1S(N)(=O)=O | > 100 | > 100 |  |  |  | 
4.68 | COc1cc(NC(=O)c2cccc(C#N)c2)ccc1S(N)(=O)=O | 35 | > 100 | 1.68 | > 4 |  | 
4.44 | COc1cc(NC(=O)c2ccc(OC(F)(F)F)cc2)ccc1S(N)(=O)=O | 33.8 | 35.8 | 0.93 | 0.99 |  | 
5.37 | COc1cc(NC(=O)c2ccc(C#N)cc2)ccc1S(N)(=O)=O | > 100 | > 100 | > 26.5 | > 26.5 |  | 
4.51 | COc1cc(NC(=O)c2cccc(C)c2)ccc1S(N)(=O)=O | > 100 | > 100 | > 3.22 | > 3.22 |  | 
5.52 | COc1cccc(C(=O)Nc2ccc(S(N)(=O)=O)c(OC)c2)c1 | 113 | > 100 | 38 | > 33.5 |  | 
5.11 | COc1cc(NC(=O)c2ccc(C)c([N+](=O)[O-])c2)ccc1S(N)(=O)=O | 53.1 | > 100 |  | > 33.3 |  | 
5.56 | COc1cc(NC(=O)c2cccc(Cl)c2)ccc1S(N)(=O)=O | 91.5 | > 100 | 33.5 | > 36.6 |  | 
4.07 | COc1cc(NC(=O)COCC(=O)Nc2ccc(S(N)(=O)=O)c(OC)c2)ccc1S(N)(=O)=O | 81 | 98 | 0.95 | 1.15 |  | 
5.49 | COc1cc(NC(=O)c2ccc(Br)cc2)ccc1S(N)(=O)=O | 48.3 | 86.8 | 12.1 | 21.7 |  | 
4.82 | COc1cc(NC(=O)c2ccc(Cl)c([N+](=O)[O-])c2)ccc1S(N)(=O)=O | 72.7 | 15.7 | 4.77 | 1.03 |  | 
4.33 | COc1cc(NC(=O)c2ccc(Cl)cc2)ccc1S(N)(=O)=O | 43.9 | > 100 | 0.94 | > 2.14 |  | 
4.44 | COc1cc(NC(=O)c2cccc(C(F)(F)F)c2)ccc1S(N)(=O)=O | 76.7 | > 100 | 2.13 | > 2.78 |  | 
4.88 | COc1cc(NC(=O)c2cccc(Br)c2)ccc1S(N)(=O)=O | 20.9 | 48.6 | 1.57 | 3.66 |  | 
